Measured values published in US9840513B2 (AbbVie S.à.r.l., priority 2015, dated 2017).

Experiments:
[1] = biological target: T1, F508delCFTR cell surface expression in CFBE41o-F508delCFTR-HRP cells (Homo sapiens, UniProt P13569, DEL508-508); experiment: Cell Surface Expression-Horse Radish Peroxidase (CSE-HRP) Assay; assay type: cell-based; conditions: for EC50: CFBE41o-F508delCFTR-HRP cells, 18-24 hours at 33° C., 8-point curve, highest concentration 20 μM; for Maximum % activity (%): maximum at any tested concentration, normalized to on-plate positive control (3 μM)
T1 construct: fused on or other part: Horseradish peroxidase (HRP) reporter inserted in the fourth exofacial (extracellular) loop of CFTR; expression is doxycycline-inducible
Summary of the method: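 CFBE41o- cells with HRP-tagged F508delCFTR, expression induced by 0.5 μg/mL doxycycline for 72 h at 37 °C, then compound for 18-24 h at 33 °C (8-point, 3-fold, top 20 μM). Surface HRP measured by luminol luminescence; % activity normalised to 3 μM positive-control corrector; EC50 from variable-slope sigmoidal fit, three replicate plates.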

[2] = biological target: T2, F508delCFTR in primary hBE cells with F508del/F508del CFTR mutation (Homo sapiens, UniProt P13569, DEL508-508); experiment: Transepithelial Clamp Circuit on Human Bronchial Epithelial Cells Conductance Assay (hBE-TECC); assay type: cell-based; conditions: for EC50: primary hBE cells F508del/F508del, 18-24 hours at 37° C., equivalent short circuit current, 6 concentrations
T2 construct: cells isolated from CF patients with the homozygous mutation; endogenous in cells; host or cells: primary human bronchial epithelial (hBE) cells from F508del/F508del CF patients
From the text: Transepithelial Clamp Circuit on Human Bronchial Epithelial Cells Conductance Assay:
A cell based assay using the primary human bronchial epithelial cells (hBE) was used as a secondary assay to test novel F508delCFTR correctors for their activity on primary hBE cells with F508del/F508del CFTR mutation. The assay used a TECC-24 (Transepithelial Clamp Circuit for 24 wells) instrument that measures the functionality of the mutated channel by measuring the equivalent short circuit current (Ieq) generated by the polarized epithelial cells. The instrument works by measuring the transepithelial potential difference (Vt) and transepithelial resistance (Rt) in an open circuit format, and the Ieq is calculated by using Ohms law (Ieq=Vt/Rt). The assay was run in a 24-well format and all 24-wells were measured at the same time point giving a higher throughput for this assay.
Primary human bronchial epithelial (hBE) cells from F508del/F508delCFTR patients were expanded from 1×10^6 to 250×10^6 cells (Neuberger T, Burton B, Clark H and VanGoor F; Cystic Fibrosis, Methods in Mole Biol 741; eds. Amaral M D and Kunzelmann K, 2011). For this purpose, cells isolated from CF patients with the homozygous mutation were seeded onto 24 well Corning (Cat #3378) filter plates that were coated with 3T3 conditioned media and grown at an air-liquid interface for 35 days using an Ultroser® G supplemented differentiation media. Apical surface mucus was removed 72 hours before the experiment using 3 mM dithiothreitol (DTT) in phosphate buffered saline (PBS). The apical surface was washed again 24 hours before the experiment using PBS. The cells were incubated with the desired dose response of the corrector compounds 18-24 hours at 37° C., 5% CO2. The corrector compounds are only added on the basolateral side of the epithelial cells.
On the day of measuring the corrector activity on the TECC, the cells were switched into a bicarbonate and serum free F-12 Coon's medium and allowed to equilibrate for 90 minutes in a CO2 free incubator. At the time of measurement, the apical and basolateral sides of the filter were bathed with the F-12 Coon's modification media (with 20 mM 4-(2-hydroxyethyl)-1-piperazineethanesulfonic acid (HEPES), pH 7.4 (using 1 M tris(hydroxymethyl)aminomethane (Tris)), and the measurements were made at 36.5° C. Transepithelial voltage (Vt) and transepithelial resistance (Rt) were measured using a 24 channel transepithelial current clamp (TECC-24). Current responses to the sequential addition of benzamil (apical 6 μM addition; for inhibiting epithelial ENaC channel), forskolin (apical and basolateral 10 μM addition; for activating the CFTR channel), control potentiator (N-(3-carbamoyl-5,5,7,7-tetramethyl-4,7-dihydro-5H-thieno[2,3-c]pyran-2-yl)-1H-pyrazole-5-carboxamide; apical and basolateral […] addition; for potentiating the CFTR channel) and bumetanide (basolateral 20 μM addition; for inhibiting the Na:2Cl:K co-transporter, an indirect measure of inhibiting the Cl-secretion driven by CFTR channel) were measured.
All plates contained negative controls (dimethyl sulfoxide, DMSO) which coupled with the control potentiator (N-(3-carbamoyl-5,5,7,7-tetramethyl-4,7-dihydro-5H-thieno[2,3-c]pyran-2-yl)-1H-pyrazole-5-carboxamide) sets the null response and positive controls (3 μM of 3-[(2R,4R)-4-({[1-(2,2-difluoro-1,3-benzodioxol-5-yl)cyclopropyl]carbonyl}amino)-7-methoxy-3,4-dihydro-2H-chromen-2-yl]benzoic acid) coupled with the control potentiator sets the 100% response to measure the correction of the mutated CFTR channel. The maximum percent activity is reported relative to the positive control value.
The % activity measured at each of the 6 test concentrations of the test compound was normalized to the on-plate positive control using the following formula: % activity=[[…]]*100 […]

[3] = relative to positive control (3 μM) coupled with control potentiator

T2 sequence (P13569 with tags, fused parts or gaps DEL508-508): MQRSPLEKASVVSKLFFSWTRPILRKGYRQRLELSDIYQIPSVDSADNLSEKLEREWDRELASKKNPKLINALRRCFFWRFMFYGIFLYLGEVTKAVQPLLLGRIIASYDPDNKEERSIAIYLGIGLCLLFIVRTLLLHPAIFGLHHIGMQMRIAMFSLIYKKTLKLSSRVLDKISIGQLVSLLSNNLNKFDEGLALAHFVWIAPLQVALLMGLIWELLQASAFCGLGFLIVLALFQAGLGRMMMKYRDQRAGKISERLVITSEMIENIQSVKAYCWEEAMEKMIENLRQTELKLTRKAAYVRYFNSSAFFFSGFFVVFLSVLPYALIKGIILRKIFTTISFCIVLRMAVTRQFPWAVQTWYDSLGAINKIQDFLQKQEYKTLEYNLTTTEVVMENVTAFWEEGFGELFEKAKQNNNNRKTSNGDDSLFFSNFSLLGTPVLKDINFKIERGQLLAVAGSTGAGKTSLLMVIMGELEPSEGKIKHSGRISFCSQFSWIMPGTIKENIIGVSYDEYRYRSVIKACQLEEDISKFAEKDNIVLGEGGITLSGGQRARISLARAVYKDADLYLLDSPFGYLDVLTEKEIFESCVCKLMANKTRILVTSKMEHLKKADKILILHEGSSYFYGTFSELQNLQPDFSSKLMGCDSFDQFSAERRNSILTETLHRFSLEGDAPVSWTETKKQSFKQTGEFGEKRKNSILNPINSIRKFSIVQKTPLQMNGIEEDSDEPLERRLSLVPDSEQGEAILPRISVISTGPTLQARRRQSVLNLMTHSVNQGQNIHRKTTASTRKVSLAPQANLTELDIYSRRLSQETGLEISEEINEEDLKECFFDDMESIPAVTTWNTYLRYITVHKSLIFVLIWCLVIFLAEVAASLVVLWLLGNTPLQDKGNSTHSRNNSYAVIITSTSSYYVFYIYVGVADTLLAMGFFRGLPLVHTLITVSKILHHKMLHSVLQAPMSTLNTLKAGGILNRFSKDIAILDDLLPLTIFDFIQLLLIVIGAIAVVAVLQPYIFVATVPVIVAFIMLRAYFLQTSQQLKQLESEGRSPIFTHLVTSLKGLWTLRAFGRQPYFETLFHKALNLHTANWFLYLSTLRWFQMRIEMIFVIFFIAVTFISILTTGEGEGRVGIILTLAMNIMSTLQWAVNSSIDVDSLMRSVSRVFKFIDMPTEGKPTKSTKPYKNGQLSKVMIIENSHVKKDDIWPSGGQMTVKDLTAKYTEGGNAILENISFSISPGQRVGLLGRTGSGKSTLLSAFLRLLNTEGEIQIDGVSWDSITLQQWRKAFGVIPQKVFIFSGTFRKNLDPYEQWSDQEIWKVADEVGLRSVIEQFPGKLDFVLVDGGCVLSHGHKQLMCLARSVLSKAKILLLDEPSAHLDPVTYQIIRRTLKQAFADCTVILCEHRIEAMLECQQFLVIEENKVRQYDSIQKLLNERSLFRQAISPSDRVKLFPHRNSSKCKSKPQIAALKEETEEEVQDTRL
T1 sequence (P13569 with tags, fused parts or gaps DEL508-508 limits assumed): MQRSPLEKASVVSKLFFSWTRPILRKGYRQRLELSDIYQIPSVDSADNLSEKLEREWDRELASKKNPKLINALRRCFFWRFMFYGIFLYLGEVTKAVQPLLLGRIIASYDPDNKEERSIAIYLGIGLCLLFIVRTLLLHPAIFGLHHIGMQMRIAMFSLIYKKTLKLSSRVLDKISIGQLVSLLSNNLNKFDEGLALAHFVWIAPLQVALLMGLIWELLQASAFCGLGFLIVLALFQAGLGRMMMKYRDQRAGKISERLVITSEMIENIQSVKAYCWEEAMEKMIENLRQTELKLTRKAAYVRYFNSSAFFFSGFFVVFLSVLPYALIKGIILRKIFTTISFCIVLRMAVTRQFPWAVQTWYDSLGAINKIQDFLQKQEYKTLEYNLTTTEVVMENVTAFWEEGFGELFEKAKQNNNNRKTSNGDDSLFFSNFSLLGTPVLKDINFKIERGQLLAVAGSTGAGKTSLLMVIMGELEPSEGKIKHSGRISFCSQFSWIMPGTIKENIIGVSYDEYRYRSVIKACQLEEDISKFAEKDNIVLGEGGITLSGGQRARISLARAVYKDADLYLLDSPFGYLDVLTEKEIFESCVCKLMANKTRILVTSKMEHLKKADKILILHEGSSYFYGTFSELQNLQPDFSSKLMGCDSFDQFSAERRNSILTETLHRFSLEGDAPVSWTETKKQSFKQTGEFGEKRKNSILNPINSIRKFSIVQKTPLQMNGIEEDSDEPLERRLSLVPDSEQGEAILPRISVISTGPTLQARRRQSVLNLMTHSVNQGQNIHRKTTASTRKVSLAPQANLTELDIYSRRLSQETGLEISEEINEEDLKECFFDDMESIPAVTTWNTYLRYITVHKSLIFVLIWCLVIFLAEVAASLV
T1 sequence (P13569 919-1480 limits assumed, stated change not applied): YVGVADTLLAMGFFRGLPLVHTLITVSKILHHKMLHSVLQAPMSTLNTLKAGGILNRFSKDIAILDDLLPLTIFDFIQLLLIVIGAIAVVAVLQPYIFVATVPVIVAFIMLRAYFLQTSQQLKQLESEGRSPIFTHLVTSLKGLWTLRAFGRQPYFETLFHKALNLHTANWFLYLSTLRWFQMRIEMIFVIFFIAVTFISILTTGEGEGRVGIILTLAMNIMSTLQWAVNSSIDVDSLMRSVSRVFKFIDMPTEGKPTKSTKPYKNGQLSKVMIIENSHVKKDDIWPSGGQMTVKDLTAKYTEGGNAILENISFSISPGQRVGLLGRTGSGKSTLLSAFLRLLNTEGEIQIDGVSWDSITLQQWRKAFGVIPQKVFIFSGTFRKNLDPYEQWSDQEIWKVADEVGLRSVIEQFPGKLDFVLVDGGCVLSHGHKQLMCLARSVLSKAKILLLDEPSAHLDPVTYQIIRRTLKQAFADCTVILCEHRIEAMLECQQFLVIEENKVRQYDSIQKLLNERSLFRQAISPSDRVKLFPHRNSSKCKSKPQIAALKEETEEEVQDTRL

Cc1ccc(NC(=O)[C@]2(C)CCc3c2ccc2c3OCO2)cc1-c1cccc(C(=O)O)c1 (single isomer, unassigned) [Example 37]
EC50 [1]: 730 nM
Maximum % activity (%) [1]: 83%
EC50 [2]: 564 nM
Maximum % activity (%) [2, 3]: 70%

C[C@]1(C(=O)N[C@H]2C[C@@H](c3ccccc3)O[C@@H](c3ccc(C(=O)O)cc3)C2)COc2cc3c(cc21)OC(F)(F)O3 (single isomer, unassigned) [Example 44]
EC50 [1]: 930 nM
Maximum % activity (%) [1]: 114%
EC50 [2]: 246 nM
Maximum % activity (%) [2, 3]: 83%

COc1ccc2c(c1)O[C@@H](c1cnc([C@H](O)CO)cn1)C[C@H]2NC(=O)[C@@]1(C)COc2cc3c(cc21)OC(F)(F)O3 (single isomer, unassigned) [Example 192]
EC50 [1]: 90 nM
Maximum % activity (%) [1]: 126%
EC50 [2]: 6 nM
Maximum % activity (%) [2, 3]: 103%

Cc1ccc(NC(=O)C2(C)COc3cc4c(cc32)OC(F)(F)O4)nc1-c1cccc(C(=O)O)c1 (stereo not drawn) [Example 2, 3-{6-[(2,2-difluoro-7-methyl-6,7-dihydro-2H-furo[2,3-f][1,3]benzodioxole-7-carbonyl)amino]-3-methylpyridin-2-yl}benzoic acid]
EC50 [1]: 300 nM
Maximum % activity (%) [1]: 159%
EC50 [2]: 242 nM
Maximum % activity (%) [2, 3]: 99%

Cc1ccc(NC(=O)[C@@]2(C)COc3cc4c(cc32)OC(F)(F)O4)nc1-c1cccc(C(=O)O)c1 [Example 6, 3-(6-{[(7R)-2,2-difluoro-7-methyl-6,7-dihydro-2H-furo[2,3-f][1,3]benzodioxole-7-carbonyl]amino}-3-methylpyridin-2-yl)benzoic acid]
EC50 [1]: 290 nM
Maximum % activity (%) [1]: 157%
EC50 [2]: 199 nM
Maximum % activity (%) [2, 3]: 103%

COc1ccc2c(c1)O[C@@H](c1cccc(C(=O)O)c1)C[C@H]2NC(=O)C1(C)COc2cc3c(cc21)OC(F)(F)O3 (stereo partly drawn) [Example 11, 3-{(2R,4R)-4-[(2,2-difluoro-7-methyl-6,7-dihydro-2H-furo[2,3-f][1,3]benzodioxole-7-carbonyl)amino]-7-methoxy-3,4-dihydro-2H-1-benzopyran-2-yl}benzoic acid]
EC50 [1]: 510 nM
Maximum % activity (%) [1]: 166%
Maximum % activity (%) ([2]; testing concentration 1 μM): 91%

COc1ccc2c(c1)O[C@@H](c1ccc(C(=O)O)cc1)C[C@H]2NC(=O)[C@@]1(C)COc2cc3c(cc21)OC(F)(F)O3 [Example 20, 4-[(2R,4R)-4-{[(7R)-2,2-difluoro-7-methyl-6,7-dihydro-2H-furo[2,3-f][1,3]benzodioxole-7-carbonyl]amino}-7-methoxy-3,4-dihydro-2H-1-benzopyran-2-yl]benzoic acid]
EC50 [1]: 30 nM
Maximum % activity (%) [1]: 150%
EC50 [2]: 11 nM
Maximum % activity (%) [2, 3]: 98%

CC1(C(=O)N[C@@H]2C[C@H](c3cccc(C(=O)O)c3)Oc3ccccc32)COc2cc3c(cc21)OC(F)(F)O3 (stereo partly drawn) [Example 21, 3-{(2R,4R)-4-[(2,2-difluoro-7-methyl-6,7-dihydro-2H-furo[2,3-f][1,3]benzodioxole-7-carbonyl)amino]-3,4-dihydro-2H-1-benzopyran-2-yl}benzoic acid]
EC50 [1]: 1260 nM
Maximum % activity (%) [1]: 162%
EC50 [2]: 468 nM
Maximum % activity (%) [2, 3]: 94%

CC1(C(=O)Nc2cc(-c3ccccc3)nn(C[C@@H](O)CO)c2=O)COc2cc3c(cc21)OC(F)(F)O3 (stereo partly drawn) [Example 25, N-{2-[(2R)-2,3-dihydroxypropyl]-3-oxo-6-phenyl-2,3-dihydropyridazin-4-yl}-2,2-difluoro-7-methyl-6,7-dihydro-2H-furo[2,3-f][1,3]benzodioxole-7-carboxamide]
EC50 [1]: 1160 nM
Maximum % activity (%) [1]: 82%
Maximum % activity (%) ([2]; testing concentration 10 μM): 61%

C[C@]1(C(=O)Nc2cc(-c3ccccc3)nn(C[C@@H](O)CO)c2=O)COc2cc3c(cc21)OC(F)(F)O3 [Example 27, (7R)—N-{2-[(2R)-2,3-dihydroxypropyl]-3-oxo-6-phenyl-2,3-dihydropyridazin-4-yl}-2,2-difluoro-7-methyl-6,7-dihydro-2H-furo[2,3-f][1,3]benzodioxole-7-carboxamide]
EC50 [1]: 810 nM
Maximum % activity (%) [1]: 82%
Maximum % activity (%) ([2]; testing concentration 3 μM): 54%

CC1(C(=O)Nc2cc(C3CC3)nn(-c3ccc(C(=O)O)cc3)c2=O)COc2cc3c(cc21)OC(F)(F)O3 (stereo not drawn) [Example 30, 4-{3-cyclopropyl-5-[(2,2-difluoro-7-methyl-6,7-dihydro-2H-furo[2,3-f][1,3]benzodioxole-7-carbonyl)amino]-6-oxopyridazin-1(614)-yl}benzoic acid]
EC50 [1]: 980 nM
Maximum % activity (%) [1]: 122%
Maximum % activity (%) ([2]; testing concentration 10 μM): 47%

C[C@]1(C(=O)Nc2cc(C3CC3)nn(-c3ccc(C(=O)O)cc3)c2=O)COc2cc3c(cc21)OC(F)(F)O3 [Example 32, 4-[3-cyclopropyl-5-{[(7R)-2,2-difluoro-7-methyl-6,7-dihydro-2H-furo[2,3-f][1,3]benzodioxole-7-carbonyl]amino}-6-oxopyridazin-1(6H)-yl]benzoic acid]
EC50 [1]: 880 nM
Maximum % activity (%) [1]: 144%
Maximum % activity (%) ([2]; testing concentration 3 μM): 51%

CC1(C(=O)N[C@@H]2C[C@H](c3cccc(C(=O)O)c3)Oc3ccccc32)CCc2cc3c(cc21)OC(F)(F)O3 (stereo partly drawn) [Example 35, 3-{(2R,4R)-4-[(2,2-difluoro-5-methyl-6,7-dihydro-2H,5H-indeno[5,6-d][1,3]dioxole-5-carbonyl)amino]-3,4-dihydro-2H-1-benzopyran-2-yl}benzoic acid]
EC50 [1]: 940 nM
Maximum % activity (%) [1]: 76%
Maximum % activity (%) ([2]; testing concentration 3 μM): 80%

Cc1ccc(NC(=O)C2(C)CCc3c2ccc2c3OCO2)cc1-c1cccc(C(=O)O)c1 (stereo not drawn) [Example 36, 2′-methyl-5′-[(6-methyl-7,8-dihydro-2H,6H-indeno[4,5-d][1,3]dioxole-6-carbonyl)amino][1,1′-biphenyl]-3-carboxylic acid]
EC50 [1]: 1240 nM
Maximum % activity (%) [1]: 79%
Maximum % activity (%) ([2]; testing concentration 10 μM): 77%

COc1ccc2c(c1)O[C@@H](c1ccc(C(=O)O)cc1)C[C@H]2NC(=O)C1(C)COc2c1ccc1c2OC(F)(F)O1 (stereo partly drawn) [Example 39, 4-{(2R,4R)-4-[(2,2-difluoro-6-methyl-6,7-dihydro-2H-furo[2,3-e][1,3]benzodioxole-6-carbonyl)amino]-7-methoxy-3,4-dihydro-2H-1-benzopyran-2-yl}benzoic acid]
EC50 [1]: 1260 nM
Maximum % activity (%) [1]: 106%
Maximum % activity (%) ([2]; testing concentration 3 μM): 47%

methyl 4-[(2R,4S,6S)-4-{[(7R)-2,2-difluoro-7-methyl-6,7-dihydro-2H-furo[2,3-f][1,3]benzodioxole-7-carbonyl]amino}-6-phenyloxan-2-yl]benzoate and methyl 4-[(2S,4R,6R)-4-{[(7R)-2,2-difluoro-7-methyl-6,7-dihydro-2H-furo[2,3-f][1,3]benzodioxole-7-carbonyl]amino}-6-phenyloxan-2-yl]benzoate [Example 33]
EC50 [1]: 1180 nM
Maximum % activity (%) [1]: 131%
